These results are taken from publication PMC8960621, “Solution speciation and human serum protein binding of indium(III) complexes of 8-hydroxyquinoline, deferiprone and maltol” (Journal of Biological Inorganic Chemistry, 2022).

SMILES strings stand for the structures.

A short description of data set [1]: Interaction of tris-ligand complexes with low molecular mass serum components (phosphate, citrate, oxalate), UV-vis. Type of data set: physicochemical. To be noted: tenfold excess of the LMM ligands (phosphate, citrate, oxalate), pH 7.4. The text has this:
As a first step, interaction of the tris-ligand In(III) complexes with various LMM blood serum components was investigated and compared to that of GaQ3 studied formerly in our research group. The LMM compounds are considered to be more mobile than the high molecular mass components (HMM) such as proteins, and generally their reaction is characterized by faster kinetics. The role of serum compounds might have importance on the distribution of the In(III) complexes since they may be responsible for (partial) displacement of the originally coordinated ligand and they can also form mixed-ligand complexes. The complexes of In(III) and Ga(III) formed with HQ (InQ3, GaQ3), deferiprone (InD3) and maltol (InM3) were prepared in an aqueous solution by mixing the respective ligand and the metal ion in 3:1 ratio. […] All the measurements in this work were performed at 25 °C as most of the stability constants used for the modeling calculations published in the literature were determined at this temperature. UV–vis spectra recorded for the tris-ligand complexes at 10 μM concentration (see Fig. S1a for InQ3) in this buffer show 94%, 90% and < 20% non-dissociated InQ3, InD3 and InM3, respectively, which corresponds well to the fractions obtained using the stability constants determined at 0.20 M KCl: 90% (InQ3), 86% (InD3) and 9% InM3 and 6% InM^2+. […]

In data set [2] the target is T1, human serum albumin (HSA) (Homo sapiens, UniProt P02768).
T1 construct: purchased Sigma-Aldrich A8763
Kind of data set: HSA binding by membrane ultrafiltration-UV-vis. The settings on record: 2.5 equiv. protein.

The target of data set [3] is T2, apoTf (Homo sapiens, UniProt P02787).
T2 construct: purchased Sigma-Aldrich T2036
Kind of data set: apoTf fluorescence quenching. The class given is binding. The settings on record: λEM = 330 nm. The protocol:
Fluorescence quenching is a convenient technique to study the binding of metal ions at the iron-binding sites of apoTf since it results in reduced fluorescence intensity of Tf. Batch samples containing 1 μM apoTf and various amounts of In(III) compounds were prepared. […] The partial (and not complete) quenching of apoTf can be explained by the presence of numerous Tyr (26) and Trp (8) residues in the protein among which only a few are affected by the binding of In(III) at the iron-binding sites. Upon addition of InQ3, the quenching curve is more stretched and aims to lower intensities (Fig. 4b). Interaction of the non-dissociated complex InQ3 with apoTf cannot be excluded, the latter proposed interaction is realized via intermolecular binding mode and more likely takes place on site(s) other than the iron-binding pockets (vide infra).
Fluorescence studies were implemented by a Fluoromax (Horiba Jobin Yvon) fluorometer in 1 cm quartz cells. Samples contained 1 μM HSA or (apo)Tf and various protein-to-metal complex (or InCl3) ratios (up to complex/HSA = 1:30) were used. […] Intrinsic fluorescence of complex InQ3 was also followed at λEX = 367 nm, and λEM = 450 – 650 nm. In this setup, the complex concentration was ca. 10 or 20 μM, and protein (HSA, (apo)Tf) concentration was varied between 0 and 130 μM, and residual fluorescence of the proteins were subtracted if it was necessary. […]

On the set-up of data set [4]: method as in PMID 23089600. The settings on record: 10 μM, pH 7.4; cited from earlier work.
On the set-up of data set [5]: method as in PMID 25398250. The settings on record: same LMM competitors in tenfold excess, investigated separately; cited from earlier work.
For data set [6], the target named is T1, human serum albumin (HSA). Set-up: method as in PMID 25398250. The settings on record: cited from earlier work.
For data set [7], the target named is T3, apo-transferrin (apoTf) (Homo sapiens, UniProt P02787).
T3 construct: purchased Sigma-Aldrich T2036
To be noted: similar conditions; cited from earlier work.

T1 sequence (P02768 25-609): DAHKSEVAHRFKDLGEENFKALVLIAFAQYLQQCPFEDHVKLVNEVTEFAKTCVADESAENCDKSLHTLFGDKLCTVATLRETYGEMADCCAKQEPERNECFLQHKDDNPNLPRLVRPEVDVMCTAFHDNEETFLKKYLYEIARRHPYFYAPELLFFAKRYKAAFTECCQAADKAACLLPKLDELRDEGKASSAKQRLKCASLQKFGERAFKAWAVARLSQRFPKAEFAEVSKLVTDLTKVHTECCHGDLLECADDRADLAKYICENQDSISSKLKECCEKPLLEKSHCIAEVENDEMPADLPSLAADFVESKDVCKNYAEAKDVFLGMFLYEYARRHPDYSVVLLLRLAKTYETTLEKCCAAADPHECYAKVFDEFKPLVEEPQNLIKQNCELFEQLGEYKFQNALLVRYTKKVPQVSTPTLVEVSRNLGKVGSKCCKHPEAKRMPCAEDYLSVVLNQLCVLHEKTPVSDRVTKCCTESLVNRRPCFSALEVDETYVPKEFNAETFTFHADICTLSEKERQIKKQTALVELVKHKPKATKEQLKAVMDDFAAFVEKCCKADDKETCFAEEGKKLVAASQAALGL
T2 sequence (P02787 20-698): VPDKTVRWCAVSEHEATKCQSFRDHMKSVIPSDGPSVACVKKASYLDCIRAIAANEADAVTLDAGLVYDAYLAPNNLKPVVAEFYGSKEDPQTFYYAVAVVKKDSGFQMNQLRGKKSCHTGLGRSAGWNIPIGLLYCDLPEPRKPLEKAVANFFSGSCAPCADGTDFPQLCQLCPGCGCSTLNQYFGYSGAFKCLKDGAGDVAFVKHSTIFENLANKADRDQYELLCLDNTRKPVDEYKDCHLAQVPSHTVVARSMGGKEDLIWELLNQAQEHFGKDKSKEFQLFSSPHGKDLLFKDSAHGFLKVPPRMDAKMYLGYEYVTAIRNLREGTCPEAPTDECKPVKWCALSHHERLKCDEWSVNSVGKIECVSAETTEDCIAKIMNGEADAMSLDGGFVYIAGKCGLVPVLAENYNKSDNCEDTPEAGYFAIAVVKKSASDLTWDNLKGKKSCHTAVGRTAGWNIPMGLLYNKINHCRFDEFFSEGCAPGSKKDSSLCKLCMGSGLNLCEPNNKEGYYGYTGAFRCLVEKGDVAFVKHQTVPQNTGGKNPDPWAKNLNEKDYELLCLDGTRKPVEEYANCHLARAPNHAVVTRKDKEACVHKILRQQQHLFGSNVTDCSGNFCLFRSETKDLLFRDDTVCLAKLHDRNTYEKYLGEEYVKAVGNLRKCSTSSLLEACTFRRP
T3 sequence (P02787 20-698): as above

In the case of `[In+3].[O-]c1cccc2cccnc12.[O-]c1cccc2cccnc12.[O-]c1cccc2cccnc12` [InQ3, Tris(8-Quinolinolato)indium(III)], the complex remained result in data set [1] is on record as “ca. 34%”.

As to `Cc1c([O-])c(=O)ccn1C.Cc1c([O-])c(=O)ccn1C.Cc1c([O-])c(=O)ccn1C.[In+3]` [InD3], in data set [2], the “In(III) ion bound to the protein (deferiprone liberation)” value was “ca. 7%” and the “complex bound to HSA” value is given as “ca. 8%”. Moreover, the “apoTf emission stabilized at % of the initial intensity” value in data set [3] (1 μM apoTf, λEX = 280 nm, pH 7.40) is on record as “ca. 83%”. Besides, the “breakpoint of the quenching curve, complex-to-Tf ratio” value in data set [3] is “ca. 2”.

`[Ga+3].[O-]c1cccc2cccnc12.[O-]c1cccc2cccnc12.[O-]c1cccc2cccnc12` [GaQ3, Tris(8-Quinolinolato)gallium(III), reference compound]: the “fraction of tris-ligand complex” value in data set [4] is 86%. Moreover, the “effect of LMM competitors on the complex” value in data set [5] is given as “practically not affected”. Further, the “logK’ (HSA binding constant)” value in data set [6] was 4.04. For the same compound, the “time of interaction with apoTf” value in data set [7] is not above 1 h.
